Measured values taken from article PMC11953442, “PIP2-mediated oligomerization of the endosomal sodium/proton exchanger NHE9” (Nature Communications, 2025).
Blank lines part the entries; values can stand above or below the molecule they belong to.

What was measured:
[1] = target: T1, EcNhaA-mut2 (Escherichia coli, UniProt P13738, A109T/Q277G/L296M); assay: cryo-EM structure; format: binding; settings: pH 7.5; DDM; 3 mM cardiolipin added; three lipids at dimer interface; 3.3 A
T1 construct: gene nhaA; from E. coli Lemo21(DE3); homodimer

[2] = target: T2, NHE9* (Equus caballus, UniProt F7B113); assay: GFP-based thermal shift assay; format: binding; settings: 0.1 mg/ml lipid; DDM, CHS, octyl glucoside; NHE9*-GFP fusion
T2 construct: gene SLC9A9; residues 8-575 of 644, C-terminally truncated; TEV-GFP-TwinStrep-His8 from S. cerevisiae FGY217; GFP kept for thermal shift, cut for cryo-EM; homodimer
T2 sequence (F7B113 8-575): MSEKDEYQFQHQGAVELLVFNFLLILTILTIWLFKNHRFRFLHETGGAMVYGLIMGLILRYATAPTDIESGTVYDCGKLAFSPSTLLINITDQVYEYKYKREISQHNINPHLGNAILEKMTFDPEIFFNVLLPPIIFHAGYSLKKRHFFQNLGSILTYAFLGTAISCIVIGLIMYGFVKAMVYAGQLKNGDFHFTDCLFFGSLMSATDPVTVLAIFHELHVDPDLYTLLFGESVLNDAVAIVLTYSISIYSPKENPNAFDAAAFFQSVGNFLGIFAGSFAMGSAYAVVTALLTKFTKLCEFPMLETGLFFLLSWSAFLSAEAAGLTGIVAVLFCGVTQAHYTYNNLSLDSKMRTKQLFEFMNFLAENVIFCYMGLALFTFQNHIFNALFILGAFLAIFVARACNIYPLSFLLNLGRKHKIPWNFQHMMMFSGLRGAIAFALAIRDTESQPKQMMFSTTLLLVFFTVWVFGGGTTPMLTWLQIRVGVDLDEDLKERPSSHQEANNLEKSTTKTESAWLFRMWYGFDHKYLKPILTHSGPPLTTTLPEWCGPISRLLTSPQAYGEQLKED

[3] = target: T3, E. coli NhaA WT-like triple mutant (A109T, Q277G, L296M) (E. coli), P13738; assay: cryo-EM structure; NhaA triple-mutant-GFP fusion in DDM with 3 mM cardiolipin (18:1) added, 20 mM Tris-HCl pH 7.5, 150 mM NaCl, 0.03% DDM; three cardiolipins modelled at the dimer interface; settings: remark: other sources report otherwise
T3 chain: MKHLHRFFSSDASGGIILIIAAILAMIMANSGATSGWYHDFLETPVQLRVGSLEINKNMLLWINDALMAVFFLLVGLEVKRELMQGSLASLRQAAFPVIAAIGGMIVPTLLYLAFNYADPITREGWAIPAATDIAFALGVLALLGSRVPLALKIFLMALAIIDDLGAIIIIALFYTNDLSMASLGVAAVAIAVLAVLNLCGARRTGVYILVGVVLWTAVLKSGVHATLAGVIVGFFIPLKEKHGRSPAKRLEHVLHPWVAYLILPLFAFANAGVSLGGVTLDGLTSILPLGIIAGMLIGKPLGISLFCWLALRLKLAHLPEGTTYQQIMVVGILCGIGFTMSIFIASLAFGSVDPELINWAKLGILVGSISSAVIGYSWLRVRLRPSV

[4] = target: the molecule itself; assay: cryo-EM structure; NHE9* at pH 6.5, 20 mM Mes-Tris, 150 mM NaCl, 0.003% LMNG, 0.0006% CHS; C2 symmetry; AlphaFold2 multimer model refined into a composite map
[5] = target: the molecule itself; assay: cryo-EM structure; NHE9*CC purified with bovine brain lipid extract, 20 mM Tris-HCl pH 8, 150 mM NaCl, 0.003% LMNG, 0.0006% CHS; C2 symmetry; two PI(3,5)P2 modelled at the dimer interface

Molecule: CCCCCCCC/C=C\CCCCCCCC(=O)OC[C@H](COP(=O)(O)OCC(O)COP(=O)(O)OC[C@@H](COC(=O)CCCCCCC/C=C\CCCCCCCC)OC(=O)CCCCCCC/C=C\CCCCCCCC)OC(=O)CCCCCCC/C=C\CCCCCCCC (stereo partly drawn) [cardiolipin (18:1)]
cryo-EM structure [1]: map density supported the modelling of cardiolipin at the dimerization interface

dTm [2]: 15 °C
Molecule: CCCCCCCCCCCCCCCC(=O)OC[C@H](COP(=O)(O)O[C@@H]1[C@H](O)[C@H](OP(=O)(O)O)[C@@H](O)[C@H](OP(=O)(O)O)[C@H]1O)OC(=O)CCCCCCCCCCCCCCC [PI(3,5)P2 dipalmitoyl]

dTm [2]: 8 °C
Molecule: CCCCCCCC(=O)OC[C@H](COP(=O)(O)O[C@@H]1[C@H](O)[C@H](O)[C@@H](OP(=O)(O)O)[C@H](OP(=O)(O)O)[C@H]1O)OC(=O)CCCCCCC [PI(4,5)P2 dioctanoyl]

stoichiometry N [3]: 2
B1: E. coli NhaA WT-like triple mutant (A109T, Q277G, L296M), P13738 1-388 (natural protein)
chain: MKHLHRFFSSDASGGIILIIAAILAMIMANSGATSGWYHDFLETPVQLRVGSLEINKNMLLWINDALMAVFFLLVGLEVKRELMQGSLASLRQAAFPVIAAIGGMIVPTLLYLAFNYADPITREGWAIPAATDIAFALGVLALLGSRVPLALKIFLMALAIIDDLGAIIIIALFYTNDLSMASLGVAAVAIAVLAVLNLCGARRTGVYILVGVVLWTAVLKSGVHATLAGVIVGFFIPLKEKHGRSPAKRLEHVLHPWVAYLILPLFAFANAGVSLGGVTLDGLTSILPLGIIAGMLIGKPLGISLFCWLALRLKLAHLPEGTTYQQIMVVGILCGIGFTMSIFIASLAFGSVDPELINWAKLGILVGSISSAVIGYSWLRVRLRPSV

B2: E. caballus NHE9* (residues 8 to 575), tag removed (domain or fragment, Equus caballus, UniProt F7B113 8-575, looked up)
chain: MSEKDEYQFQHQGAVELLVFNFLLILTILTIWLFKNHRFRFLHETGGAMVYGLIMGLILRYATAPTDIESGTVYDCGKLAFSPSTLLINITDQVYEYKYKREISQHNINPHLGNAILEKMTFDPEIFFNVLLPPIIFHAGYSLKKRHFFQNLGSILTYAFLGTAISCIVIGLIMYGFVKAMVYAGQLKNGDFHFTDCLFFGSLMSATDPVTVLAIFHELHVDPDLYTLLFGESVLNDAVAIVLTYSISIYSPKENPNAFDAAAFFQSVGNFLGIFAGSFAMGSAYAVVTALLTKFTKLCEFPMLETGLFFLLSWSAFLSAEAAGLTGIVAVLFCGVTQAHYTYNNLSLDSKMRTKQLFEFMNFLAENVIFCYMGLALFTFQNHIFNALFILGAFLAIFVARACNIYPLSFLLNLGRKHKIPWNFQHMMMFSGLRGAIAFALAIRDTESQPKQMMFSTTLLLVFFTVWVFGGGTTPMLTWLQIRVGVDLDEDLKERPSSHQEANNLEKSTTKTESAWLFRMWYGFDHKYLKPILTHSGPPLTTTLPEWCGPISRLLTSPQAYGEQLKED
notes: Endosomal Na+/H+ exchanger NHE9 (SLC9A9), Equus caballus, partially truncated on the C-terminal tail, residues 8 to 575 out of a total of 644; also called SLC9A9; not shown: GFP, C-terminal, cleaved; TwinStrep, C-terminal, cleaved; His8, C-terminal, cleaved
stoichiometry N [4]: 2

B3: E. caballus NHE9*CC (NHE9* L139C-I444C double mutant) (domain or fragment, Equus caballus, UniProt F7B113 8-575, looked up)
chain: MSEKDEYQFQHQGAVELLVFNFLLILTILTIWLFKNHRFRFLHETGGAMVYGLIMGLILRYATAPTDIESGTVYDCGKLAFSPSTLLINITDQVYEYKYKREISQHNINPHLGNAILEKMTFDPEIFFNVLCPPIIFHAGYSLKKRHFFQNLGSILTYAFLGTAISCIVIGLIMYGFVKAMVYAGQLKNGDFHFTDCLFFGSLMSATDPVTVLAIFHELHVDPDLYTLLFGESVLNDAVAIVLTYSISIYSPKENPNAFDAAAFFQSVGNFLGIFAGSFAMGSAYAVVTALLTKFTKLCEFPMLETGLFFLLSWSAFLSAEAAGLTGIVAVLFCGVTQAHYTYNNLSLDSKMRTKQLFEFMNFLAENVIFCYMGLALFTFQNHIFNALFILGAFLAIFVARACNIYPLSFLLNLGRKHKIPWNFQHMMMFSGLRGACAFALAIRDTESQPKQMMFSTTLLLVFFTVWVFGGGTTPMLTWLQIRVGVDLDEDLKERPSSHQEANNLEKSTTKTESAWLFRMWYGFDHKYLKPILTHSGPPLTTTLPEWCGPISRLLTSPQAYGEQLKED
notes: Endosomal Na+/H+ exchanger NHE9 (SLC9A9), Equus caballus, residues 8 to 575 out of a total of 644, with L139C and I444C; also called cysteine variant; not shown: GFP, C-terminal, cleaved; TwinStrep, C-terminal, cleaved; His8, C-terminal, cleaved
stoichiometry N [5]: 2
